From ChEMBL document CHEMBL1132615, “Structure--activity relationships of lysophosphatidic acid: conformationally restricted backbone mimetics” (J Med Chem, 1999) come the findings set out here.

A short description of assay [1]: Relative potency was evaluated for its ability to mobilize intracellular calcium in MDA MB231 cells.*did not reach a maximal response at the highest concentration used. The assay is classed as functional, cell-based. Conditions: Homo sapiens, MDA-MB-231.
The nature of assay [2]: Relative potency was evaluated for its ability to mobilize intracellular calcium in MDA MB231 cells. In kind it is functional, cell-based. Conditions: Homo sapiens, MDA-MB-231. On the technique in general: Calcium assays in cells follow changes in intracellular calcium, usually with a dye or a luminescent sensor.

pEC50: −log10 of the molar value.

As usually defined, the pEC50 is −log10 of the EC50, conventionally taken in molar units. As to `CCCCCCCC/C=C\CCCCCCCC(=O)NCCOP(=O)(O)O`, the negative logarithm of the EC50 (pEC50) in assay [1] was 8.52.

Consider `CCCCCC/C=C\CCCCCCCC(=O)Nc1cccc(OP(=O)(O)O)c1`, for which, in assay [2], the negative-log EC50 (pEC50) is 6.34.

Take `CCCCCCCCCCCCCCCC(=O)Oc1cccc(OP(=O)(O)O)c1`: the negative logarithm of the EC50 (pEC50) in assay [2] was 6.51.

Turning to `CCCCCCCCCCCC(=O)Oc1ccc(C(=O)c2ccc(OP(=O)(O)O)cc2)cc1`, in assay [1], the pEC50 is 5.33.

In the case of `CCCCCCCCCC(=O)Oc1ccc(C(=O)c2ccc(OP(=O)(O)O)cc2)cc1`, the negative logarithm of the EC50 (pEC50) in assay [1] is below 3.30.

Consider `CCCCCCCCCCCCCCCC(=O)Nc1cccc(OP(=O)(O)O)c1`, for which the pEC50 in assay [2] was 6.34.

Take `CCCCCCCC(=O)Oc1ccc(C(=O)c2ccc(OP(=O)(O)O)cc2)cc1`: the pEC50 in assay [1] is below 3.30.

Regarding `CCCCCCCCCCCCCCCC(=O)Nc1ccc(OP(=O)(O)O)cc1`, the negative logarithm of the EC50 (pEC50) in assay [1] was 5.81.

As for `CCCCCC/C=C\CCCCCCCC(=O)Oc1cccc(OP(=O)(O)O)c1`, in assay [1], the pEC50 was 6.07.

Turning to `CCCCCC/C=C\CCCCCCCC(=O)Nc1ccc(OP(=O)(O)O)cc1`, the negative-log EC50 (pEC50) in assay [2] is 5.74.

Consider `CCCCCCCCCCCCCC(=O)Oc1ccc(C(=O)c2ccc(OP(=O)(O)O)cc2)cc1`, for which the pEC50 in assay [1] was 5.70.

Turning to `CCCCCCCC/C=C\CCCCCCCC(=O)OCC(O)COP(=O)(O)O` (single isomer, unassigned) [LYSOPHOSPHATIDIC ACID], in assay [2], the pEC50 is 8.30.
